Data set [1] has as its target T1, human PPARγ ligand-binding domain (Gal4 chimera) (Homo sapiens, UniProt P37231).
T1 construct: coding for the hinge region and LBD of the canonical isoform of the respective nuclear receptor; expressed in transfected cells; host or cells: HEK293T
T1 sequence (P37231 238-503 limits assumed): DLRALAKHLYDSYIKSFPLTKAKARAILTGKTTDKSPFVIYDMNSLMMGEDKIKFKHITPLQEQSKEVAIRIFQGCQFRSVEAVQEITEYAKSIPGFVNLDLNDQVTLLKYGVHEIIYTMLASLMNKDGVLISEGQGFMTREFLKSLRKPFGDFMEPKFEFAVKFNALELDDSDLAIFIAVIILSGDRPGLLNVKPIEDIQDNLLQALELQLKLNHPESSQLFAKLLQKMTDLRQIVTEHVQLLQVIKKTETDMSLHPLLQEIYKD
In words: Gal4 hybrid reporter gene assay, PPARγ. It counts as cell-based. Details: Emax: dose or concentration left out as unconfirmed.

Data set [2] deals with T2, human FXR:retinoid X receptor (RXR) heterodimer (Homo sapiens, UniProt Q96RI1).
T2 construct: pcDNA3-hFXR[32] and pSG5-hRXR[33] served for receptor overexpression in the full-length FXR assay; expressed in transfected cells; host or cells: HeLa
In words: Full-length FXR reporter gene assay (BSEP response element) in HeLa cells. It counts as cell-based. Set-up: Emax: dose or concentration left out as unconfirmed. The settings on record: HeLa.

In data set [3] the target is T3, human PPARδ ligand-binding domain (Gal4 chimera) (Homo sapiens, UniProt Q03181).
T3 construct: coding for the hinge region and LBD of the canonical isoform of the respective nuclear receptor; expressed in transfected cells; host or cells: HEK293T
T3 sequence (Q03181 211-439 limits assumed): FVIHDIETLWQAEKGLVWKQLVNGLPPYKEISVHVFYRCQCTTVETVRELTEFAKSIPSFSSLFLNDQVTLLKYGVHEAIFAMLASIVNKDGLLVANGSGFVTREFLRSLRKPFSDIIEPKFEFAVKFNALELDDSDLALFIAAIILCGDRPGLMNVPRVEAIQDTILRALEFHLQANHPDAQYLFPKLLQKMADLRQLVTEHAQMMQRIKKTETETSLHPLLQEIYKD
Put plainly: Gal4 hybrid reporter gene assay, PPARδ. The data set is classed as cell-based. Set-up: Emax: dose or concentration left out as unconfirmed. For orientation: A reporter such as luciferase makes a cellular process visible.

The target of data set [4] is T4, human PPARα ligand-binding domain (Gal4 chimera) (Homo sapiens, UniProt Q07869).
T4 construct: coding for the hinge region and LBD of the canonical isoform of the respective nuclear receptor; expressed in transfected cells; host or cells: HEK293T
T4 sequence (Q07869 239-466 limits assumed): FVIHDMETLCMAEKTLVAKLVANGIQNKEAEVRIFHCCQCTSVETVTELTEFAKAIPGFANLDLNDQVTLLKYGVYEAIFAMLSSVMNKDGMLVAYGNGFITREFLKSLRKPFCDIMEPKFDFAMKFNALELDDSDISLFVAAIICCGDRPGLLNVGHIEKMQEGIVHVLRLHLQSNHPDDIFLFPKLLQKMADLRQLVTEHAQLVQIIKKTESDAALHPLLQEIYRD
Put plainly: Gal4 hybrid reporter gene assay, PPARα. It counts as cell-based. Details: Emax: dose or concentration left out as unconfirmed.

Data set [5] has as its system nuclear receptors related to PPARs and FXR (LXRα/β, RXRα/β/γ, RARα/β/γ, VDR, CAR). The following applies: previous studies; cited from earlier work.
Data set [6] deals with diet-induced mouse model of NASH. The settings on record: cited from earlier work.
The test system of the next data set is HEK293T and U2OS cells. Put plainly: Multiplex high-content live-cell toxicity assay. It counts as cell-based. The following applies: seven concentrations between 100 nM and 100 µM; 2, 12 and 24 h. On the procedure:
Before proof-of-concept in vivo evaluation, we profiled stability and cytotoxicity of the triple modulator 41 in vitro. […] To determine cytotoxicity, we employed a multiplex high-content life-cell imaging screen[24] on HEK293T and U2OS cells. For this, the cells were treated with fluorescent probes to detect Annexin V as apoptosis marker (Annexin V Alexa488), dead cells (Yo-Pro3), and DNA/nucleus (Hoechst33342). Cells were then incubated with 41, OCA, or elafibranor at seven concentrations between 100 nM and 100 µM, and cell health was determined by fluorescence imaging after 2, 12, and 24 h (Fig. 6g–i and Supplementary Fig. 5).
Supplementary Methods for in Vitro Characterization
Cytotoxicity was assessed in a high content screen on two different cell lines, HEK293T (ATCC® CRL-1573™) and U2OS (ATCC®HTB-96™), essentially as described previously6. In brief, cells were cultured in DMEM plus L-Glutamine (high glucose) supplemented with 10 % FBS (Gibco) and Penicillin/Streptomycin (Gibco). […]
After 2 h, 12 h and 24 h, cellular shape and fluorescence was analyzed on an automated, high-content confocal microscope (CQ1, Yokogawa). […]
50 ms, 40%; bright field, 300ms, 100% transmission, one centered field per well, 7 z stacks per well with 55 µm spacing. Images were analyzed with the Pathfinder software (Yokogawa). Cells were detected and gated as previously described6. […]
The solubilized test compound (5 μL, final concentration 10 μM in phosphate buffer (0.1 M, pH 7.4)) was preincubated at 37 °C in 432 μL of phosphate buffer (0.1 M, pH 7.4) together with a 50 μL NADPH regenerating system (30 mM glucose-6-phosphate, 4 U/mL glucose-6-phosphate dehydrogenase, 10 mM NADP, 30 mM MgCl2). […] The supernatants were analyzed and test compound was quantified by HPLC: mobile phase: MeOH 83%/H2O 17%/formic acid 0.1%; flow-rate: 1 mL/min; stationary phase: MultoHigh Phenyl phase, 5 μm, 250×4, precolumn, phenyl, 5 μm, 20×4; detection wavelength: 330 and 254 nm; injection volume: 50 μL. […]

The subject of data set [7] is FXR- and PPAR-regulated gene expression in HepG2 cells. Put plainly: FXR- and PPAR-regulated gene expression in HepG2 cells (qRT-PCR). The settings on record: HepG2, 1 µM, 12 h, vs. vehicle-treated cells. It counts as cell-based, human. On the procedure: HepG2 cells (DSMZ) were grown in DMEM high glucose, supplemented with 10% FCS, 1 mM SP, penicillin (100 U/mL), and streptomycin (100 μg/mL) at 37 °C and 5% CO2 and seeded in 6-well plates (2 × 10^6 per well). After 24 h, medium was changed to Minimal Essential Medium supplemented with 1% charcoal-stripped FCS, penicillin (100 U/mL), streptomycin (100 μg/mL), and 2 mM L-glutamine. After an additional 24 h, cells were incubated with test compound 41 (0.1 µM, 0.3 µM, 1 μM), OCA (1 μM), or elafibranor (1 µM) dissolved in the same medium with 0.1% DMSO or medium with 0.1% DMSO alone as untreated control for 12 h, harvested, washed with cold phosphate-buffered saline (PBS), and then directly used for RNA extraction. C2C12 cells (American Type Culture Collection, ATCC) were grown in DMEM high glucose, supplemented with 10% FCS, 1 mM SP, penicillin (100 U/mL), and streptomycin (100 μg/mL) at 37 °C and 5% CO2 and seeded in 6-well plates (1 × 10^6 per well). Upon reaching confluence, medium was changed to Eagle’s Minimal Essential Medium supplemented with 2% horse serum, penicillin (100 U/mL), streptomycin (100 μg/mL), and 2 mM L-glutamine. Cells were then differentiated in this medium for 5 days before incubation with test compounds 41 (1 μM) or L165,041 (1 μM) dissolved in the same medium with 0.1% DMSO or medium with 0.1% DMSO alone as untreated control for 8 h. Cells were harvested, washed with cold PBS, and then directly used for RNA extraction. Total RNA was extracted from HepG2 cells or C2C12 cells using the total RNA Mini Kit (R6834-02, Omega Bio-Tek, Inc., Norcross, GA, USA). Two micrograms of extracted RNA were then reverse-transcribed into cDNA with the High-Capacity cDNA Reverse Transcription Kit (4368814, Thermo Fischer Scientific, Inc.). FXR- and PPAR-regulated gene expression was then studied by quantitative real-time PCR (qRT-PCR) analysis with a StepOnePlus System (Life Technologies, Carlsbad, CA, USA) using PowerSYBRGreen (Life Technologies; 12.5 μL per well). Each sample was set up in duplicates and repeated in four independent experiments. Data were analyzed by the comparative ΔΔCT method with glyceraldehyde 3-phosphate dehydrogenase (GAPDH) as reference gene. The following primers were used for HepG2 cells (human genes): hGAPDH: 5 ′-ATATGATTCCACCCATGGCA (fw), 5′-GATGATGACCCTTTTGGCTC (rev); hSHP: 5′-GCTGTCTGGAGTCCTTCTGG (fw), 5′-CCAATGATAGGGCGAAAGAAGAG (rev); hCYP7A1: 5′-CACCTTGAGGACGGTTCCTA (fw), 5′-CGATCCAAAGGGCATGTAGT (rev); hBSEP: 5′-CATGGTGCAAGAAGTGCTGAGT (fw), 5′-AAGCGATGAGCAACTGAAATGAT (rev); hACOX: 5′-ACT CGC AGC CAG CGT TAT G (fw), 5′-AGG GTC AGC GAT GCC AAA C (rev); hPDK4: 5′-AGAGCCTGATGGATTTGGTG (fw), 5′-GCTTGGGTTTCCTGTCTGTG (rev); hCPT1: 5′-ACAGTCGGTGAGGCCTCTTAT (fw), 5′-TCTTGCTGCCTGAATGTGAGT (rev); hFGF21: 5′-ATGGATCGCTCCACTTTGACC (fw), 5′-GGGCTTCGGACTGGTAAACAT (rev). The following primers were used for C2C12 cells (murine genes)[36]: mGAPDH: 5′-CGACTTCAACAGCAACTCCCACTCTTCC (fw), 5′-TGGGTGGTCCAGGGTTTCTTACTCCTT (rev); mPCK: 5′-TGTTTACTGGGAAGGCATCG (fw), 5′-CAGAATCTCGAGTTGGGATGG (rev); mGLUT3: 5′-CGTCCTTGAAGATTCCTGTTGA (fw), 5′-GTC ACC CAA CTA CGT CCA G (rev); mLPL: 5′-GTCAGGTTCTCTCTTGTACAGG (fw), 5′-TCTAACTGCCACTTCAACCAC (rev).
(Real-time PCR tracks product formation cycle by cycle.)

For the next data set, the system named is STAM NASH. The settings on record: cited from earlier work.
For data set [8], the system named is choline-deficient, L-amino acid-defined, high-fat diet-induced NASH in mice. Details: method as in PMID 29164820. The settings on record: cited from earlier work.
Data set [9] has as its system (foz/foz) mice under atherogenic diet. The following applies: without a pronounced effect on hepatic inflammation; cited from earlier work.

Each structure is given as a SMILES string.

T2 sequence (P19793 whole entry): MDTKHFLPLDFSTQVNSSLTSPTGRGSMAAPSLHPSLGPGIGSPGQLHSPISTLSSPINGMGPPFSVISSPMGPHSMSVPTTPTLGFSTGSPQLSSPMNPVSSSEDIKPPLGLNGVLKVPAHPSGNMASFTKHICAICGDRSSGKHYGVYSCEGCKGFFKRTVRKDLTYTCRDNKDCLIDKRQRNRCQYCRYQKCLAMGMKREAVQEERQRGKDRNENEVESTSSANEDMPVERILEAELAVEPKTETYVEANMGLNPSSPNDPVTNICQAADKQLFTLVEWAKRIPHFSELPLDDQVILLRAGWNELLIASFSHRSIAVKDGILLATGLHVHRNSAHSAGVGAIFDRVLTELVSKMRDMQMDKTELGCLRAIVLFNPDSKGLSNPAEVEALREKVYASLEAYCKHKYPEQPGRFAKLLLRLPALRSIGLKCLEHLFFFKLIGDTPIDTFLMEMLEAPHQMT
T2 sequence (Q96RI1 whole entry): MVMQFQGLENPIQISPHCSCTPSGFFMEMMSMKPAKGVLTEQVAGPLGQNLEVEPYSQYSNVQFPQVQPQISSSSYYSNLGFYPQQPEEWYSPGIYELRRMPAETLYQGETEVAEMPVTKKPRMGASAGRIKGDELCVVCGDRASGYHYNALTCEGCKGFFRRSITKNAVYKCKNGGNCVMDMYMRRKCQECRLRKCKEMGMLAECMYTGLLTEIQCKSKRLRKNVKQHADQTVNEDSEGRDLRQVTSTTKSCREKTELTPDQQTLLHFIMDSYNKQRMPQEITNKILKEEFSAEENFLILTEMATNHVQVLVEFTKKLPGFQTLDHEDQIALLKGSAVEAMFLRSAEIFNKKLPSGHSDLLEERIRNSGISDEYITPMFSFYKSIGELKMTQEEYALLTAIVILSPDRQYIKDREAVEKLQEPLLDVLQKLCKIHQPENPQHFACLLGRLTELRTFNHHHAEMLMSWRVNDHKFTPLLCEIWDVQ

In the case of `O=C(O)Cc1cccc(NC(=O)c2ccccc2NC(=O)c2ccc3ccccc3c2)c1` [compound 5], the EC50 – broadly, the concentration giving half of the maximal effect – in [1] came to 16 ± 1 µM; in data set [2] (mean ± SEM, n = 3, read-out: EC50 [μM] FXR) it was 2.5 ± 0.2 µM; in [3] (EC50 [μM] PPARδ, HEK293T, mean ± SEM, n = 3), 4.9 ± 0.9 µM; in data set [4] (EC50 [μM] PPARα, HEK293T, mean ± SEM, n = 3), 5 ± 1 µM. Moreover, the Emax in data set [1] (read-out: max. rel. act. PPARγ) was 14%; in data set [2] (read-out: max. rel. act. FXR), 21%; in [3] (read-out: max. rel. act. PPARδ), 34%; in [4] (read-out: max. rel. act. PPARα), 37%. Moreover, the “selectivity over related nuclear receptors” value in data set [5] is reported as “selective over related nuclear receptors”.

With `CSc1ccc(C(=O)/C=C/c2cc(C)c(OC(C)(C)C(=O)O)c(C)c2)cc1` [elafibranor], in data set [6] (OCA 30 mg/kg, OCA/elafibranor 30 mg/kg + 10 mg/kg, elafibranor 10 mg/kg), the anti-steatotic effect result is recorded as “less pronounced”. Moreover, the anti-fibrotic activity result in data set [6] (equivalent, previously reported study) is “only weak anti-fibrotic activity compared to vehicle”. For the same compound, the “cytotoxicity (cell health, apoptosis, necrosis, lysis)” value in the data set on HEK293T and U2OS cells is given as “non-toxic up to 100 µM concentration over 24 h”. For the same compound, in data set [7], the “mRNA expression of FXR-regulated genes (BSEP, SHP, CYP7A1)” value is listed as “no effect on FXR activity” and the “mRNA expression of PPAR-regulated genes (ACOX, PDK4, CPT1, FGF21)” value was “strongly promoted the expression of PPAR-regulated genes”.

Regarding `CC[C@@H](Oc1cccc(CN(CCCOc2ccc(OC)cc2)c2nc3ccccc3o2)c1)C(=O)O` [pemafibrate], the “effects in STAM NASH” value in the data set on STAM NASH is “counter hepatocyte ballooning in STAM NASH without affecting hepatic steatosis and inflammation”.

For `CCO[C@@H](Cc1ccc(OCCn2c(C)ccc2-c2ccc(SC)cc2)cc1)C(=O)O` [saroglitazar], the anti-steatosis efficacy entry in data set [8] was “stronger anti-steatosis efficacy than the selective agents fenofibrate (PPARα) and pioglitazone (PPARγ)”.

Take `CCO[C@H](COc1ccc(C(F)(F)F)cc1)CSc1ccc(OCC(=O)O)c(C)c1` [seladelpar]: in data set [9], the “effects in (foz/foz) mice under atherogenic diet” value is “improved steatosis and hepatocyte ballooning”.

(Values after paper PMC9814779, “A triple farnesoid X receptor and peroxisome proliferator-activated receptor α/δ activator reverses hepatic fibrosis in diet-induced NASH in mice” (Communications Chemistry, 2020).)
